According to US6590123B2, “Aminobenzoic acid derivatives having anti-tumorigenic activity, methods of making and using the same” (Mount Sinai School of Medicine of New York University, priority 1998, dated 2003):
“Also recorded” adds a separate entry of the source.

Key:
CEM cells = assay: Morphology by microscopy (mitotic arrest, apoptosis, necrosis); format: cell-based, human; set-up: key to Block of Mitosis: +Block of mitosis was observed; −no mitotic blocking; conditions: for mitotic arrest (blocking) effect, morphological appearance / Mitotic arrest, % / apoptosis by morphology: CEM cells; for mitotic arrest (blocking) effect, morphological appearance: 24 h, compound 8 at 0.025 μg/ml, compound 9 at 0.005 μg/ml; for morphological effect on leukemic cells / Activities of inducing Apoptosis / Activities of inducing Mitotic block / Activities of inducing Necrosis: CEM leukemic cells; for Activities of inducing Apoptosis / Activities of inducing Mitotic block / Activities of inducing Necrosis: % of affected cells; for Mitotic arrest, %: % of mitotic cells after 24 h incubation, optical microscopy; for apoptosis by morphology: treatment prolonged to 48 h
Procedure: Slides for examination of mitosis were prepared on a cytospin centrifuge (Shandon Southern Products Ltd, England ) at 700 g for 5 min. Slides were air dried, fixed in methanol and stained with Giemsa (Harleco, N.J.) at room temperature for 15 min. Cells in mitotic arrest were recognized by the disappearance of nuclear membrane and by the appearance of chromosomal scattering throughout the cytoplasm (reference 1). The % of mitotic cells were counted after 24 h incubation using optical microscopy. Apoptotic cells were identified using common criteria, i.e., shrinkage in cell size, chromatin condensation and fragmentation of the nucleus into discrete masses (reference 2).
Cell samples on slides were prepared by a Cytospin centrifuge (Shandon Southern Products Ltd, England) at 700 g for 5 min. The slides were air dried, fixed in methanol and stained with Giemsa (Harleco, N.J.) at room temperature for 15 min. Alterations of nuclei, membranes and morphological features were observed by light microscopy. Cells in mitotic phase were recognized by the appearance of their chromosomes dispersed in the cytoplasm, and by the disappearance of nuclear membrane. Apoptotic-cells were identified using previously defined criteria, i.e., shrinkage in cell size, chromatin condensation and fragmentation of the nucleus into discrete masses (references 2 & 3). Necrotic cells were differentiated from apoptotic cells by observing swollen cytoplasm and the disappearance of cell membrane prior to the destruction of the nucleus.

Purified tubulin = assay: Inhibition of microtubule assembly by spectrophotometry, cell free system; format: biochemical, calf; conditions: cell free tubulin; for inhibition of microtubule assembly: 1 μg/ml (3.3 μM for 3-BAABU)
Procedure: Purified tubulin was purchased from Sigma (St. Louis, Mo.). The effects of compounds 6, 7, 8, 9, paclitaxel and vinblastine on the microtubule assembly-disassembly process were determined using conditions recommended by the vendor. For assembly inhibition, 100 μl tubulin solution (500-600 μg protein/ml) was mixed gently with 400 μl reaction buffer containing 0.1 M MES (2-[N-morpholino]ethane sulfonic acid), 1 mM EGTA ([…]-N,N,N′,N′-tetraacetic acid), 0.5 mM MgCl2, 0.1 mM EDTA and 2.5 M gycerol at 37° C. Compounds 6, 7, 8, and 9 were next added to each sample at final concentrations of 10, 10, 1 and 1 μg/ml, respectively. After adding GTP to each sample to a final concentration of 1 mM, the microtubule assembly process was monitored by measuring the change of absorbance (OD) at 350 nm on a spectrophotometer (Ultrospec III, Pharmacia LKB, Uppsala, Sweden). A completed assembly process was observed within 40 min at room temperature. For disassembly inhibition, compounds 6, 7, 8, and 9 were added, at the above concentrations, to covets with repolymerized microtubules as described above, and incubated in melting ice. Changes of absorbance (OD) were monitored at 350 nm for 30 min until the OD values in the controls returned to the starting level, i.e., when the assembly-disassembly cycle was completed.
Purified tubulin from calf brain was purchased from Sigma (St. Louis, Mo.). The effects of 3-BAABU (3-bromoacetoamido, benzoylurea) on the microtubule assembly-disassembly process were determined using the conditions recommended by the vendor. For assembly inhibition, 100 μl tubulin solution (500-600 μg protein/ml) was mixed gently with 400 μl reaction buffer containing 0.1 M MES, 1 mM EGTA, 0.5 mM MgCl2, 0.1 mM EDTA and 2.5 M glycerol at 37° C. 3-BAABU, paclitaxel or vinblastine were then added to each sample cuvet at final concentrations of 3.3, 23 or 22 μM, respectively. After adding GTP to each sample to a final concentration of 1 mM, the microtubule assembly process was monitored by measuring the change of absorbance (OD) every 5 min at 350 nm on a spectrophotometer (Ultrospec III, Pharmacia LKB, Uppsala, Sweden). A completed assembly process was observed within 40 min at room temperature. For disassembly inhibition, 3-BAABU (3.3 μM), paclitaxel (23 μM) or vinblastine (22 μM) was added to a cuvet with repolymerized microtubules according to the method described above, and incubated in melting ice. Changes of absorbance (OD) were monitored at 350 nm for 30 min until the OD values in the controls returned to the starting level, i.e., completion of the assembly-disassembly cycle. Solvent solutions were used as control and had no effect in either the assembly or disassembly process.

[1] = test system: P338 leukemia lymphoma cells; assay: Survival and ED50 in mice implanted i.p. with P338 lymphoma; format: in vivo, male C57 BL/6JX mice; conditions: for ED50: P338 leukemia lymphoma i.p. in mice, drug i.p. on days 2 and 8
Procedure: FIG. 9 is a plot graph of the survival rate of male C57 BL/6JX mice implanted (i.p.) with P338 lymphoma, from 10 to 40 days after implantation. Two groups were used for the study: a control group of ten and a test group of ten that were treated with 20 mg/kg, (i.p.) of compound 8 at 2 and 8 days post-implantation.
(§1) The in vivo efficacy of 3-BAABU and 3-IAABU of the present invention was asssessed in a murine model, along with known anti-tubule agents, vinblastine and paclitaxel, as a comparative standard. Approximately 10^6 P338 leukemia lymphoma cells/mouse were implanted intra-peritoneal (i.p.) into male C57 BL/6JX mice (Jackson Laboratories, N.Y.). On days 2 and 8 post-implantation, drugs were administrated i.p. at the following concentration ranges: 3-BAABU from 16.6 to 116 μmole/kg, 3-IAABU from 14.4 to 101 μmole/kg, vinblastine from 2.2 to 20 μmole/kg and paclitaxel from 28 to 57 μmole/kg.
(§2) Both control and treated animals were examined for ascitic tumor burden daily for 35 days. […] Therapeutic index was defined as the ratio of LD50 (lethal dose) to ED50 (effective dose).

[2] = LD50 (lethal dose) in mice; conditions: mouse, in vivo, ip
Source text: as §1, §2

| Structure (SMILES) | mitotic arrest (blocking) effect, morphological appearance (CEM cells) | morphological effect on leukemic cells (CEM cells) | Activities of inducing Apoptosis (CEM cells) | Activities of inducing Mitotic block (CEM cells) | Activities of inducing Necrosis (CEM cells) | effect on microtubule assembly (Purified tubulin; up to 10 μg/ml) | Mitotic arrest, % (CEM cells) | apoptosis by morphology (CEM cells) | Block of Mitosis (CEM cells; CEM, Human T-cell Leukemia, 37° C. for 48 hr) | inhibition of microtubule assembly (Purified tubulin) | inhibition of microtubule assembly (Purified tubulin; listed as 3-BAABU) | Survival IL % ([1]; P338 Lymphoma (i.p.), 20 mg/kg ip on days 2 & 8) | Survival Mean ± SD ([1]; P338 Lymphoma (i.p.), 20 mg/kg ip on days 2 & 8, control 18.6 ± 1.1) | ED50 [1] | LD50 [2] |
| --- | --- | --- | --- | --- | --- | --- | --- | --- | --- | --- | --- | --- | --- | --- | --- |
| NC(=O)NC(=O)c1cccc(NC(=O)CCl)c1 [Compound 7, 3-Chloroacetoamido, benzoylurea] | minor | also induced mitotic arrest but with less disorganization | ++ (++: 25-50%) | + (+10-25%) | − (−:<10%) | very weak inhibitory effect; also recorded: no effect |  |  |  |  |  |  |  |  |  |
| NC(=O)NC(=O)c1cccc(NC(=O)CBr)c1 [Compound 8, 3-Bromoacetoamido, benzoylurea] | main features of mitotic arrest | induced mitotic arrest | ++++ (++++: >75%) | ++++ (++++: >75%) | − (−:<10%) |  | >85% | complete apoptosis | + | complete inhibition; also recorded: completely inhibited | Complete inhibition | 54% | 28.6 ± 5.2 | 27 µmol/kg | about 90 μmole/kg |
| NC(=O)NC(=O)c1cccc(NC(=O)CI)c1 [Compound 9, 3-Iodoacetoamido, benzoylurea] | main features of mitotic arrest |  |  |  |  |  | >85% | complete apoptosis |  | complete inhibition; also recorded: completely inhibited |  |  |  | 26 µmol/kg | about 90 μmole/kg |
